Data on 6 molecules can be found in patent US7855310B2, “AH receptor antagonists” (SYMRISE GmbH & Co. KG, priority 2006, dated 2010).

A short description of series [1]: Light stability test (solar simulator, HPLC quantification). It is filed as physicochemical. The settings on record: wt. % based on sum E isomer + Z isomer; for Degradation after 2 h: solar simulator 40 W/m^2, 2 h; for Degradation after 4 h: solar simulator 40 W/m^2, 4 h. The method, then: 20 μl of a 1-3 wt. % solution of each of the test compounds of formula (I) in a low-volatility solvent (e.g. isopropyl myristate, miglyol or glycerol) are distributed uniformly over microscope slides using a pipette. These loaded slides are then irradiated in a solar simulator with an intensity of 40 W/m^2 (for 2 h or 4 h in each case).
When the irradiation has ended, the slides are each separately laid in a glass dish containing an organic solvent (methanol, isopropanol, etc.) and the organic substances present thereon are detached in an ultrasonic bath. The resulting solutions are each transferred to a 10 ml or 25 ml volumetric flask and made up to the calibration mark with solvent. Non-irradiated slides are treated likewise as references.
The samples (contents of the respective volumetric flasks) are evaluated via HPLC quantification. These values are compared with the non-irradiated references and the degradation rate during irradiation is reported in [wt. %] per unit time, based on the sum [E isomer+Z isomer].

The target in a further series is T1, AhR (Homo sapiens, UniProt P35869).
T1 construct: endogenous in cells; host or cells: HaCaT keratinocytes
T1 sequence (P35869 11-848): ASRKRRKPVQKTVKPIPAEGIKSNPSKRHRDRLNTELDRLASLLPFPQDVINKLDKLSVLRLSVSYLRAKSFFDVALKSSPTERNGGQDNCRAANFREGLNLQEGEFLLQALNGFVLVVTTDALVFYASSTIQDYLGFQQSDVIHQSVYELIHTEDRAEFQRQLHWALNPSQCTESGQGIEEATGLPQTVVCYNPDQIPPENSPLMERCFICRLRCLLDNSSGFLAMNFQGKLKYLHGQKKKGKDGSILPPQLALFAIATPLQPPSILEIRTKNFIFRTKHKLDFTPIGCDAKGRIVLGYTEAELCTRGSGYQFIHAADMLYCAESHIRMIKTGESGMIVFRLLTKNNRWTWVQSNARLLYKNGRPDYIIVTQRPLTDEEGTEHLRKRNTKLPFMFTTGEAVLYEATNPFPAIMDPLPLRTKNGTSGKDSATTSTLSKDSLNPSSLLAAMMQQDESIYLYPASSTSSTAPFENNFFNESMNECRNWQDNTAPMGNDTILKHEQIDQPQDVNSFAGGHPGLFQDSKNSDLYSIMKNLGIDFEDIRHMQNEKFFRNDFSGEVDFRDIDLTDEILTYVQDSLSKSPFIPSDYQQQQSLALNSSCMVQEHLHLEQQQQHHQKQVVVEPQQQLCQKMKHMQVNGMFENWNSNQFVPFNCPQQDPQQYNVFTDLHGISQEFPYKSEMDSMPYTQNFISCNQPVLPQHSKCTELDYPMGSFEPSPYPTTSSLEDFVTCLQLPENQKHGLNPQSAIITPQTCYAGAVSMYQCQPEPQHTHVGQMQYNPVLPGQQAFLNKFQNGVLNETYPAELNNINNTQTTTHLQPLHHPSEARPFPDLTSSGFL
Briefly: Fluorescence microscopy of GFP-coupled AhR translocation in HaCaT cells transfected with pEGFP-AhR. It is filed as cell-based. The settings on record: in the presence and absence of UVB light. The source says:
HaCaT keratinocytes were cultivated in DMEM containing 10% of foetal calf serum. The cells were irradiated with UVB in PBS (phosphate buffered saline). For irradiation with UVB we used a TL20W/12RS lamp, which contains four parallel tubes (Philips, Eindhoven, The Netherlands) and emits the bulk of its energy in the UVB range (290-320 nm). The emission peak of the lamp is at 310 nm. Control cells were subjected to the same treatment but were not irradiated. To inhibit the AhR, the cells were treated with the test substances 1 h prior to irradiation.
HaCaT cells were plated out on compartmentalized microscope slides at a cell density of 5×10^4 cells/compartment. Some were pretreated for 1 h with the test substances. After 24 h these were transfected with plasmid pEGFP-AhR by means of the FuGene 6 transfection reagent (Roche, Mannheim, Germany) according to the manufacturer's instructions. After a further 24 h the transfected cells were irradiated with 100 J/m^2 of UVB. After 40 min the cells were fixed for 10 min with 4% paraformaldehyde and washed with PBS. The slides were dried and covered with Vectashield mounting medium (Vector Laboratories, Burlingame, Calif., USA). The GFP-coupled AhR was visualized by means of a fluorescence microscope (Olympus, Hamburg, Germany) and photographed with a ColorView XS digital camera (Olympus).

For `Oc1ccc(C=Cc2cc(O)cc(O)c2)cc1` (mixture of isomers) [Resveratrol (E/Z mixture), 3,5,4′-trihydroxystilbene, reference compound], in series [1], the “Degradation after 2 h” value is listed as 77% and the “Degradation after 4 h” value is reported as 84%.
With `COc1cc(-c2cc(=O)c3ccccc3o2)ccc1[N+](=O)[O-]` [3-methoxy-4-nitroflavone], at AhR, the “translocation of the AhR into the cell nucleus” value is “inhibited the translocation of the AhR into the cell nucleus”.
For `COc1ccc(/C=C2/C(=O)c3ccccc3C2(C)C)cc1OC` [(Ib)], in series [1], the “Degradation after 2 h” value is given as 4% and the “Degradation after 4 h” value is reported as 15%.
For `CCCCOc1cc2c(cc1C)C(=O)/C(=C/c1ccc(OC)cc1)C2(C)C` [(Id)], in series [1], the “Degradation after 2 h” value was 7% and the “Degradation after 4 h” value is 11%.
The like results for `COc1cc2c(cc1OC)C(C)(C)/C(=C\c1ccccc1)C2=O` [Compound (Ia)] were, in that order, 7% and 7%.
For `CC1=C(/C=C/C(C)=C/C=C/C(C)=C/C(=O)O)C(C)(C)CCC1` [Vitamin A acid, reference compound] the same measures were 95% and 100%.
